Data on 19 molecules can be found in ChEMBL document CHEMBL5331054, “Antibacterial quaternary ammonium agents: Chemical diversity and biological mechanism” (Eur J Med Chem, 2022).

Broadly, the IC50 is the concentration that inhibits the measured activity by half.

The subject of assay [1] is Staphylococcus aureus. As to the kind of experiment: Antibacterial activity against Staphylococcus aureus CCM 451608 assessed as reduction in bacterial growth inhibition incubated for 24 hrs by microbroth dilution method. The class given is functional. In general terms: In broth dilution the organism is exposed to a series of concentrations in liquid medium.
Assay [2] deals with Staphylococcus aureus. As to the kind of experiment: Antibacterial activity against Staphylococcus aureus CCM 451608 assessed as reduction in bacterial growth inhibition incubated for 48 hrs by microbroth dilution method. Format: functional.
Assay [3] relates to Pseudomonas aeruginosa. As to the kind of experiment: Antibacterial activity against Pseudomonas aeruginosa assessed as bacterial growth inhibition incubated for 72 hrs by microdilution method. Format: functional.
Assay [4] has as its system Escherichia coli. The assay can be described thus: Antibacterial activity against Escherichia coli assessed as bacterial growth inhibition incubated for 72 hrs by microdilution method. Format: functional.
Assay [5] deals with Staphylococcus aureus. As to the kind of experiment: Antibacterial activity against Staphylococcus aureus assessed as bacterial growth inhibition incubated for 72 hrs by microdilution assay. The class given is functional, organism-based. The settings on record: for MIC: Staphylococcus aureus, time 72 hrs.
Assay [6] relates to Enterococcus faecalis. As to the kind of experiment: Antibacterial activity against Enterococcus faecalis assessed as bacterial growth inhibition incubated for 72 hrs by microdilution method. The class given is functional.
Assay [7] relates to Staphylococcus aureus. As to the kind of experiment: Antibiofilm activity against methicillin-resistant Staphylococcus aureus assessed as inhibition of biofilm formation. Format: functional.
The subject of a further assay is Bacillus cereus. The assay can be described thus: Antibacterial activity against Bacillus cereus assessed as reduction in microbial growth after 18 hrs by MTT based broth dilution method. The class given is functional.
Assay [8] deals with Staphylococcus aureus. The assay can be described thus: Antibacterial activity against methicillin-resistant Staphylococcus aureus assessed as bacterial growth inhibition. Format: functional.
The subject of assay [9] is Staphylococcus aureus. As to the kind of experiment: Antibacterial activity against methicillin- resistant Staphylococcus aureus assessed as bacterial growth inhibition incubated for 24 hrs. The class given is functional.
For assay [10], the system named is Mycobacterium tuberculosis. The assay can be described thus: Antimycobacterial activity against Mycobacterium tuberculosis assessed as reduction in mycobacterial growth. Format: functional.
The subject of assay [11] is Mycobacterium tuberculosis. The assay can be described thus: Antibacterial activity against Mycobacterium tuberculosis Erdman assessed as bacterial growth inhibition. The class given is functional.
For assay [12], the system named is Staphylococcus aureus. As to the kind of experiment: Antibacterial activity against Staphylococcus aureus assessed as bacterial growth inhibition measured after 24 hrs by micro-broth dilution method. The class given is functional.
For assay [13], the system named is Staphylococcus aureus. The assay can be described thus: Antimicrobial activity against Staphylococcus aureus assessed as reduction in bacterial growth. Format: functional.
Assay [14] relates to Pseudomonas aeruginosa. The assay can be described thus: Antibacterial activity against Pseudomonas aeruginosa assessed as inhibition of bacterial cell growth. Format: functional.
Assay [15] concerns Escherichia coli. As to the kind of experiment: Antibacterial activity against Escherichia coli assessed as reduction bacterial cell growth. Format: functional.
For assay [16], the system named is Enterococcus faecalis. As to the kind of experiment: Antibacterial activity against Enterococcus faecalis assessed as reduction in bacterial cell growth. Format: functional.
In assay [17] the test system is Stenotrophomonas maltophilia. As to the kind of experiment: Antibacterial activity against Stenotrophomonas maltophilia assessed as inhibition of bacterial growth. The class given is functional.
Assay [18] deals with Pseudomonas aeruginosa. The assay can be described thus: Antibacterial activity against Pseudomonas aeruginosa assessed as reduction in bacterial cell growth. The class given is functional.
Another assay has as its system Acinetobacter baumannii. The assay can be described thus: Antibacterial activity against Acinetobacter baumannii assessed as inhibition of bacterial cell growth. The class given is functional.
Another assay relates to Klebsiella pneumoniae. As to the kind of experiment: Antibacterial activity against Klebsiella pneumoniae assessed as reduction in bacterial growth. The class given is functional.
Where [19] appears, read: Pseudomonas aeruginosa, 72 h, read-out: MIC.
Setting [20] is: Escherichia coli, 72 h, read-out: MIC.

As for `CCCCCCCCCCCCCCCC[n+]1ccc(C=NO)cc1`, the MIC in the assay on Staphylococcus aureus [1] and with Staphylococcus aureus [2] was 0.98 µM in each case.
For `CCCCCCCCCCCC[N+](C)(C)CC[N+](C)(C)CCCCCCCCCCCC`, the MIC came to 4 µM in the assay on Pseudomonas aeruginosa [3] (setting [19]), 2 µM in the assay with Escherichia coli [4] (setting [20]), 1 µM in the assay with Staphylococcus aureus [5] and 1 µM with Enterococcus faecalis [6].
`CCCCCCCCCCCC[N+](C)(C)CCCCC[N+](C)(C)CCCCCCCCCCCC`: the MIC in the assay with Pseudomonas aeruginosa [3] (setting [19]) turned out to be 4 µM; with Escherichia coli [4] (setting [20]), 1 µM; in the assay on Staphylococcus aureus [5], 1 µM; with Enterococcus faecalis [6], 1 µM.
Regarding `CCCCCCCCCCCC[N+](C)(C)CCN(C)CC[N+](C)(C)CCCCCCCCCCCC`, the MIC in the assay on Pseudomonas aeruginosa [3] (setting [19]) stood at 4 µM; in the assay with Escherichia coli [4] (setting [20]) it was 1 µM; in the assay on Staphylococcus aureus [7] it was 1 µM; with Staphylococcus aureus [5], 1 µM; with Enterococcus faecalis [6], 2 µM.
Take `CCCCCCCCCCCC[N+](C)(C)CCC[N+](C)(C)CCCCCCCCCCCC`: the MIC with Pseudomonas aeruginosa [3] (setting [19]) is 4 µM; with Escherichia coli [4] (setting [20]), 1 µM; with Staphylococcus aureus [5], 2 µM; in the assay with Enterococcus faecalis [6] it was 1 µM.
In the case of `CCCCCCCC[N+](C)(C)CC(=O)Nc1ccc(C(=O)/C=C/c2ccccc2F)cc1`, in the assay on Bacillus cereus, the MIC was 2 µM.
For `CCCCCCCCCCCC[N+](C)(C)CCCN(C)C`, the MIC in the assay with Staphylococcus aureus [8] came out at 8 µM; in the assay with Staphylococcus aureus [9] it was 4 µM.
On to `CCCCCCc1ccc[n+](CCOC2C3CC4CC(C3)CC2C4)c1.CS(=O)(=O)[O-]` (stereo unspecified), for which the values for the MIC in [10] and in assay [11] were 3.1 µg/mL and 1.6 µg/mL, respectively.
On to `O=C(C[n+]1cc(-c2ccc(Cl)c(Cl)c2)n2c1CCC2)Nc1ccc(Oc2ccccc2)cc1`, for which, in the assay on Staphylococcus aureus [12], the MIC was determined as 4 µM.
As to `CCCCCCCCCCCC[N+](C)(C)CCCCCCCCCCCC`, the MIC with Pseudomonas aeruginosa [3] (setting [19]) is 32 µM; in the assay with Escherichia coli [4] (setting [20]), 8 µM; in the assay on Staphylococcus aureus [5] it was 1 µM; with Enterococcus faecalis [6], 1 µM.
Regarding `CCCCCCCCCC[n+]1cccc(CN(Cc2ccc[n+](CCCCCCCCCC)c2)Cc2ccc[n+](CCCCCCCCCC)c2)c1`, the MIC in the assay with Staphylococcus aureus [13] was found to be 0.5 µM; in the assay on Pseudomonas aeruginosa [14], 2 µM; with Staphylococcus aureus [8], 0.5 µM; with Escherichia coli [15], 1 µM; in the assay with Enterococcus faecalis [16], 1 µM.
For `CCCCCC[N+](C)(C)CCOc1ccc(OCC[N+](C)(C)CCCCCC)cc1.[Br-].[Br-]`, the MIC was found to be 32 µg/mL in the assay on Staphylococcus aureus [13], 128 µg/mL in the assay with Enterococcus faecalis [16] and 64 µg/mL in [17].
Regarding `CCCCCCCCCCCCOC(=O)C[N+](C)(C)CCC[N+](C)(C)CC(=O)OCCCCCCCCCCCC.[Br-].[Br-]`, the MIC with Pseudomonas aeruginosa [3] amounted to 300 µM; with Escherichia coli [4] it was 20 µM. Further, in the assay on Staphylococcus aureus [5], the half-inhibitory concentration (IC50) worked out at 20 µM.
With `CCCCCCCC[N+](C)(C)CCOc1ccc(OCC[N+](C)(C)CCCCCCCC)cc1.[Br-].[Br-]`, the MIC in the assay on Staphylococcus aureus [13] came to 0.5 µg/mL; in the assay on Enterococcus faecalis [16] it was 4 µg/mL; in assay [17], 1 µg/mL.
For `CCCCCCCCCC[N+](C)(C)Cc1ccc(C[N+](C)(C)CCCCCCCCCC)cc1`, in the assay on Staphylococcus aureus [12], the MIC came to 6.1 µM.
With `CCCCCCCCCCCC[N+](C)(C)c1ccc(C(c2ccc(N(C)C)cc2)c2ccc(N(C)C)cc2)cc1`, in the assay on Staphylococcus aureus [13], the MIC worked out at 0.25 µM.
In the case of `CCCCCCCCCCCCCCCCCC[N+](CC)(CC)c1ccc(C(c2ccc([N+](C)(CC)CC)cc2)c2ccc([N+](C)(CC)CC)cc2)cc1`, the MIC in the assay on Staphylococcus aureus [13] is 1 µM; with Pseudomonas aeruginosa [14], 8 µM; in the assay on Staphylococcus aureus [8], 0.5 µM; in the assay with Escherichia coli [15], 1 µM; with Enterococcus faecalis [16], 1 µM.
With `CCCCCCCCS(=O)(=O)Nc1ccc(-c2ccc(-c3ccccc3)cc2)cc1C(=O)C(=O)NCCC[N+](C)(C)C`, the MIC with Staphylococcus aureus [12] came to 4 µM.
`CCCCCCCCC[n+]1ccc(Oc2ccc(-c3ccc(Oc4cc[n+](CCCCCCCCC)cc4)cc3)cc2)cc1.[Br-].[Br-]`: the MIC in the assay with Pseudomonas aeruginosa [18], in the assay with Staphylococcus aureus [8], in the assay with Escherichia coli [15], in the assay with Acinetobacter baumannii and with Klebsiella pneumoniae was less than 0.25 µg/mL throughout.
